Laboratory results taken from PubChem BioAssay (NCI).
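Where inhibition never reached the appropriate level, the endpoint shown equals the highest concentration tested. Otherwise, values were interpolated linearly from a five-concentration, 48-hour dose response in 96-well plates. GI50 is the concentration that inhibits growth by half. TGI: concentration producing complete growth inhibition.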

Tests used:
Test in all cases: NCI-60 cell line screen, 48 h; in the data active means GI50 below about 0.43 µM; inactive means the rest
A549 NSCLC = test system: A549 NSCLC
ACHN renal = test system: ACHN renal
BT-549 breast = test system: BT-549 breast
HOP-92 NSCLC = test system: HOP-92 NSCLC
IGROV1 ovarian = test system: IGROV1 ovarian
MCF7 breast = test system: MCF7 breast
MDA-MB-435 = test system: MDA-MB-435
MOLT-4 leukemia = test system: MOLT-4 leukemia
NCI-H460 lung = test system: NCI-H460 lung
SF-268 CNS = test system: SF-268 CNS
SK-MEL-28 melanoma = test system: SK-MEL-28 melanoma
SN12C renal = test system: SN12C renal
SNB-75 CNS = test system: SNB-75 CNS
U251 CNS = test system: U251 CNS
SR leukemia = test system: SR leukemia

C/C(CC(O)(C(F)(F)F)C(F)(F)F)=N\N
> 10 µM: TGI (A549 NSCLC) | TGI (ACHN renal) | TGI (BT-549 breast) | TGI (HOP-92 NSCLC) | TGI (IGROV1 ovarian) | TGI (MCF7 breast) | TGI (MDA-MB-435) | TGI (MOLT-4 leukemia) | TGI (NCI-H460 lung) | TGI (SF-268 CNS) | TGI (SK-MEL-28 melanoma) | TGI (SN12C renal) | TGI (SNB-75 CNS) | TGI (U251 CNS)

O=C(NC(=O)c1cn(CCN2CCNCC2)c(=O)[nH]c1=O)OCc1ccccc1
> 100 µM: TGI (A549 NSCLC) | TGI (ACHN renal) | TGI (HOP-92 NSCLC) | TGI (MOLT-4 leukemia) | TGI (NCI-H460 lung) | TGI (SF-268 CNS) | TGI (SN12C renal) | TGI (SNB-75 CNS) | TGI (SR leukemia) | TGI (U251 CNS)

COc1cc2cc3c4c(cc(OC)c(OC)c4c2cc1OC)CCN3C(=O)CCCC(=O)O
> 100 µM: TGI (A549 NSCLC) | TGI (ACHN renal) | TGI (HOP-92 NSCLC) | TGI (IGROV1 ovarian) | TGI (MOLT-4 leukemia) | TGI (NCI-H460 lung) | TGI (SF-268 CNS) | TGI (SK-MEL-28 melanoma) | TGI (SN12C renal) | TGI (SR leukemia) | TGI (U251 CNS)

COc1cc(/C=C2\C(=O)N(c3cccc(Cl)c3)C(c3ccccc3)S2(=O)=O)cc(OC)c1OC (stereo not drawn)
> 100 µM: TGI (A549 NSCLC) | TGI (ACHN renal) | TGI (BT-549 breast) | TGI (HOP-92 NSCLC) | TGI (MCF7 breast) | TGI (MDA-MB-435) | TGI (NCI-H460 lung) | TGI (SF-268 CNS) | TGI (SK-MEL-28 melanoma) | TGI (SN12C renal) | TGI (U251 CNS)
98.8 µM: TGI (MOLT-4 leukemia)

COCCO
> 100 µM: TGI (A549 NSCLC) | TGI (HOP-92 NSCLC) | TGI (IGROV1 ovarian) | TGI (MCF7 breast) | TGI (MOLT-4 leukemia) | TGI (NCI-H460 lung) | TGI (SF-268 CNS) | TGI (SK-MEL-28 melanoma) | TGI (SN12C renal) | TGI (SNB-75 CNS) | TGI (U251 CNS)

CC(/C=C/c1ncccc1OCCCCCC(=O)O)=N\NC1=NCCN1
> 100 µM: TGI (A549 NSCLC) | TGI (ACHN renal) | TGI (HOP-92 NSCLC) | TGI (IGROV1 ovarian) | TGI (MOLT-4 leukemia) | TGI (NCI-H460 lung) | TGI (SF-268 CNS) | TGI (SK-MEL-28 melanoma) | TGI (SN12C renal) | TGI (SR leukemia)

CSc1ccc2c(c1)c(CCN)c(C)n2Cc1ccc(Cl)c(Cl)c1
3.17 µM: TGI (SK-MEL-28 melanoma)
3.08 µM: TGI (ACHN renal)
2.6 µM: TGI (SNB-75 CNS)
inactive: GI50 (ACHN renal) 1590 nM | GI50 (HOP-92 NSCLC) 1400 nM | GI50 (SK-MEL-28 melanoma) 1670 nM | GI50 (SNB-75 CNS) 1320 nM
2.78 µM: TGI (HOP-92 NSCLC)

O=C1CCc2c3c(c4c([nH]c5ccccc54)c2CC1)C(=O)NC3=O
12.3 µM: TGI (MDA-MB-435)
28.2 µM: TGI (BT-549 breast)
13.7 µM: TGI (IGROV1 ovarian)
24.7 µM: TGI (ACHN renal)
81 µM: TGI (MCF7 breast)
4.05 µM: TGI (MOLT-4 leukemia)
12 µM: TGI (SK-MEL-28 melanoma)
> 100 µM: TGI (A549 NSCLC) | TGI (SF-268 CNS) | TGI (SN12C renal) | TGI (U251 CNS)
82 µM: TGI (HOP-92 NSCLC)
44.9 µM: TGI (NCI-H460 lung)
0.61 µM: TGI (SNB-75 CNS)

Nc1[nH]c(=O)nc2sc3c(c12)CCCC3
64.4 µM: TGI (SNB-75 CNS)
> 100 µM: TGI (A549 NSCLC) | TGI (ACHN renal) | TGI (HOP-92 NSCLC) | TGI (IGROV1 ovarian) | TGI (MCF7 breast) | TGI (MOLT-4 leukemia) | TGI (NCI-H460 lung) | TGI (SF-268 CNS) | TGI (SK-MEL-28 melanoma) | TGI (SN12C renal) | TGI (SR leukemia) | TGI (U251 CNS)

O=c1[nH]c(=S)[nH]c2c1sc(=S)n2-c1ccccc1
> 100 µM: TGI (A549 NSCLC) | TGI (ACHN renal) | TGI (HOP-92 NSCLC) | TGI (IGROV1 ovarian) | TGI (MOLT-4 leukemia) | TGI (NCI-H460 lung) | TGI (SF-268 CNS) | TGI (SK-MEL-28 melanoma) | TGI (SN12C renal) | TGI (SNB-75 CNS) | TGI (SR leukemia) | TGI (U251 CNS)

O=C(CSc1nc2ccc(I)cc2c(=O)n1Cc1ccccc1)N/N=C/c1ccccc1
32.4 µM: TGI (SF-268 CNS)
33.3 µM: TGI (U251 CNS)
34 µM: TGI (HOP-92 NSCLC)
36.1 µM: TGI (IGROV1 ovarian)
28.6 µM: TGI (SNB-75 CNS)
> 100 µM: TGI (A549 NSCLC) | TGI (ACHN renal) | TGI (MCF7 breast) | TGI (MDA-MB-435) | TGI (MOLT-4 leukemia) | TGI (NCI-H460 lung) | TGI (SK-MEL-28 melanoma) | TGI (SN12C renal) | TGI (SR leukemia)

CCCCCCc1nn2c(-c3ccc(C)cc3)nnc2s1
> 100 µM: TGI (A549 NSCLC) | TGI (ACHN renal) | TGI (BT-549 breast) | TGI (MCF7 breast) | TGI (MDA-MB-435) | TGI (MOLT-4 leukemia) | TGI (NCI-H460 lung) | TGI (SF-268 CNS) | TGI (SK-MEL-28 melanoma) | TGI (SN12C renal) | TGI (SNB-75 CNS) | TGI (U251 CNS)

N#CC12COC3(CCCCC3C1(C#N)C#N)OC2=N (stereo not drawn)
45.5 µM: TGI (U251 CNS)
27.7 µM: TGI (IGROV1 ovarian)
25.3 µM: TGI (SF-268 CNS)
35.2 µM: TGI (SNB-75 CNS)
64.7 µM: TGI (MDA-MB-435)
29.4 µM: TGI (NCI-H460 lung)
29.5 µM: TGI (MCF7 breast)
24.8 µM: TGI (SN12C renal)
30.1 µM: TGI (ACHN renal)
46.8 µM: TGI (SK-MEL-28 melanoma)
18.5 µM: TGI (HOP-92 NSCLC)
66.8 µM: TGI (A549 NSCLC)
30.5 µM: TGI (BT-549 breast)
79.7 µM: TGI (MOLT-4 leukemia)

NC(=O)c1cnc2sc3ccccc3n2c1=O
> 100 µM: TGI (A549 NSCLC) | TGI (ACHN renal) | TGI (BT-549 breast) | TGI (HOP-92 NSCLC) | TGI (IGROV1 ovarian) | TGI (MCF7 breast) | TGI (MOLT-4 leukemia) | TGI (NCI-H460 lung) | TGI (SF-268 CNS) | TGI (SK-MEL-28 melanoma) | TGI (SN12C renal) | TGI (SNB-75 CNS) | TGI (SR leukemia)

O=C(N/N=C(/COc1cccc(Cl)c1)N=Cc1ccncc1)c1ccncc1
> 100 µM: TGI (A549 NSCLC) | TGI (ACHN renal) | TGI (BT-549 breast) | TGI (HOP-92 NSCLC) | TGI (IGROV1 ovarian) | TGI (MCF7 breast) | TGI (MDA-MB-435) | TGI (MOLT-4 leukemia) | TGI (NCI-H460 lung) | TGI (SF-268 CNS) | TGI (SK-MEL-28 melanoma) | TGI (SN12C renal) | TGI (U251 CNS)

NNC(N)=Nc1cccc2ccccc12
> 100 µM: TGI (A549 NSCLC) | TGI (ACHN renal) | TGI (IGROV1 ovarian) | TGI (MCF7 breast) | TGI (MDA-MB-435) | TGI (MOLT-4 leukemia) | TGI (NCI-H460 lung) | TGI (SF-268 CNS) | TGI (SK-MEL-28 melanoma) | TGI (SN12C renal) | TGI (SNB-75 CNS) | TGI (SR leukemia) | TGI (U251 CNS)
92.4 µM: TGI (HOP-92 NSCLC)

Cc1ccc2nc3c(C(=O)NCCN(C)C)cccc3cc2c1
5.08 µM: TGI (HOP-92 NSCLC)
11.6 µM: TGI (MCF7 breast)
6.5 µM: TGI (IGROV1 ovarian)
7.06 µM: TGI (SN12C renal)
11.7 µM: TGI (U251 CNS)
4 µM: TGI (A549 NSCLC)
2.36 µM: TGI (NCI-H460 lung)
8.26 µM: TGI (SNB-75 CNS)
2.52 µM: TGI (SF-268 CNS)
6.67 µM: TGI (SK-MEL-28 melanoma)

CCOC(=O)C(Cc1ccc2c(c1)CCC2)(Cc1ccc2c(c1)CCC2)C(=O)OCC
55.1 µM: TGI (SR leukemia)
> 100 µM: TGI (A549 NSCLC) | TGI (ACHN renal) | TGI (HOP-92 NSCLC) | TGI (IGROV1 ovarian) | TGI (MCF7 breast) | TGI (MDA-MB-435) | TGI (NCI-H460 lung) | TGI (SF-268 CNS) | TGI (SK-MEL-28 melanoma) | TGI (SNB-75 CNS) | TGI (U251 CNS)
78.4 µM: TGI (MOLT-4 leukemia)
